Here are results for four compounds from ChEMBL document CHEMBL5113553, “Synthesis and Bioactivity of Thiocarboxylic A and Derivatives” (J Nat Prod, 2022).

In brackets after ≈: the same amount, converted by molar mass. Where only a bound is given, the exact number is not on record here.

Series [1] relates to Escherichia coli. The series can be described thus: Antibacterial activity against Escherichia coli harboring delta tolC mutant assessed as inhibition of bacterial growth incubated for 24 hrs. It counts as functional, organism-based.
For a further series, the system named is Staphylococcus aureus. The series is described as follows: Antibacterial activity against wild type Staphylococcus aureus USA300 incubated for 24 hrs. It counts as functional.
A further series deals with L929. The series can be described thus: Cytotoxicity against mouse L929 cells upto 100 uM measured after 72 hrs by alamar blue assay. It counts as toxicity, cell-based. To be noted: l929, 72 h. For orientation: Resazurin is reduced to fluorescent resorufin, in cell work by metabolically active cells.
In series [2] the test system is Escherichia coli. The series is described as follows: Antibacterial activity against wild type Escherichia coli incubated for 24 hrs. It counts as functional.
A further series has as its system Candida albicans. The series is described as follows: Antifungal activity against Candida albicans assessed as fungal growth inhibition. It counts as functional.

For the compound `CC/C=C/C=C/[C@@]1(C)OC(c2ccsc2C)=C(C(=O)OC)C1=O`, the IC50 in the series on Escherichia coli [1] worked out at 44 µM. Further, the MIC came out at 1.7 µg/mL in the series on Staphylococcus aureus, 1.7 µg/mL in the series on Escherichia coli [2] and 1.7 µg/mL (≈ 5.11 µM) with Candida albicans. Moreover, in the series on L929, the Activity entry was “Non-Toxic”.

`CCCC/C=C/C=C/[C@@]1(C)OC(c2ccsc2C)=C(C(=O)OC)C1=O`: the minimum inhibitory concentration (MIC) with Staphylococcus aureus and with Escherichia coli [2] was greater than 100 µM each time. In addition, the Activity result with L929 was “Non-Toxic”.

As to `CC/C=C/C=C/[C@@]1(C)OC(c2ccc(C)s2)=C(C(=O)OC)C1=O`, the minimal inhibitory concentration (MIC) against Staphylococcus aureus and with Escherichia coli [2] was greater than 100 µM in each case. Further, the Activity result in the series with L929 is reported as “Non-Toxic”.

Take `CC/C=C/C=C/[C@@]1(C)OC(c2sccc2C)=C(C(=O)OC)C1=O`: the minimal inhibitory concentration (MIC) against Staphylococcus aureus and against Escherichia coli [2] was greater than 100 µM throughout. For the same compound, the Activity entry with L929 was “Non-Toxic”.

For orientation: IC50 means the concentration that gives 50% inhibition. By MIC is commonly meant the lowest concentration that inhibits growth of the organism.
